Reference: patent publication US20130023491A1, “BETA-CELL REPLICATION PROMOTING COMPOUNDS AND METHODS OF THEIR USE” (President and Fellows of Harvard College, priority 2009, published 2013)
pEC50: −log10 of the molar value. Where two headings read alike, the source gives them in different places.

Legend:
[1] = test system: murine hepatocytes
Description: Total cell number was assessed with DAPI and replicating cells were ki-67^+. The Cellomics ArrayScanVTI was used for image acquisition and analysis.

[2] = test system: mouse dermal fibroblasts; experiment: Ki-67 proliferation of mouse dermal fibroblasts; type: cell-based; details: A10 0.019-10 uM
Description: Using a protocol similar to as described in Example 1, β-cells or mouse dermal fibroblasts were treated with 10 uM, 5 uM, 2.5 uM, 1.25 um, 0.625 uM, 0.3125 uM, 0.156 uM, 0.078 uM, 0.04 uM, or 0.019 uM of A10.

[3] = test system: β-cells; experiment: quantification of β-cell number (PDX-1+ cell count); type: cell-based, rat; details: day 6 (144 h), 5-IT 2 μM, 15 mM glucose; control wells 20%
Description: To quantify the number of β-cells at 0 h, 96 h and 144 h of culture, cells were plated in 96-well plates as above in the presence of vehicle only or 5-IT and 15 mM glucose; final DMSO dilution was 1:1000 in all wells. Time Oh was after cells had been allowed 48 h to adhere. Each condition was represented by 16 separate wells per plate to accommodate small fluctuations in plating density. Media changes were performed every 48 h. Cells were fixed at the appropriate time point and stored to be stained simultaneously for PDX-1. Automated cell counting was performed using the Cellomics ArrayScanVTI which identified PDX-1^+ cells.

[4] = test system: β-cells (dispersed rat islet cells); experiment: primary islet β-cell replication assay (PDX-1/ki-67 co-staining, automated imaging); type: cell-based
Description: Rat islets were isolated as previously described in Gotoh M, Maki T, Kiyoizumi T, Satomi S, Monaco A P: An improved method for isolation of mouse pancreatic islets. Transplantation 40:437-438, 1985, contents of which are herein incorporated by reference in their entirety. Isolated islets were cultured overnight in a tissue culture incubator. The following morning, islets were trypsinized into cellular clusters of 1-3 cells, re-suspended in islet media (Mediatech 99-786-CV; 10% FBS serum (Valley Biomedial BS3033); 8.3 mM Glucose (Sigma G7528); 1× Penicillin/Streptomycin (Invitrogen 15070-063); 1× Glutamax (Invitrogen 35050-079)) and plated into the wells of a 96-well plate (Sigma CLS3904) that had been coated with 804G (a rat bladder carcinoma cell line) conditioned media. The cellular plating density was 60 k cells/well and greater than 95% viability was confirmed at the time of plating. […] For screening, compounds were tested at 1 uM concentration in duplicate. After 24-hours of compound treatment, cells were fixed with fresh 4% PFA (Electron Microscopy Services 15710) for 20 minutes and washed with PBS (VWR 45000-446). Antigen retrieval was performed by heating the cells to 90 degrees Celsius in 0.1 mM EDTA (Ambion AM9260G) in PBS. Cells were then washed and permeabalized with PBS/0.3% Triton X-100 (J.T.Baker X198-07) for 15 minutes. Immunocytochemical staining was then performed as follows. Antigen blocking was performed with 5% normal donkey serum (Jackson ImmunoResearch 017-000-121) in PBS for an hour. Staining was performed by overnight incubation with primary antibody at 4 degrees Celsius. For the primary screen, PDX-1 antibody (R&D AF2419) was used to reveal beta-cells and ki-67 antibody (BD Bioscience 556003) to visualize proliferating cells. Without wishing to be bound by theory, the failure of prior beta-cell replication screens is primarily a consequence of using a cytoplasmic marker (Insulin) as the β-cell identifier. The use of a cytoplasmic marker prevents accurate attribution of nuclear replication to a specific cell identity i.e., in dense culture it is impossible to attribute a cytoplasm to a specific nucleus given the proximity to multiple nuclei. Additional Immunohistochemistry antibodies included Phosphohistone 3 (Millipore 06-570), Insulin (Dako A0564), Glucagon (Millipore 4031-01F) and Vimentin (Millipore ab5733). For western blotting anti-bodies included ADK (Abcam ab38010, ab64825) and RAN (BD Bioscience 610340) as a loading control.
Once compound-treated islet cells were stained, β-cell replication was assessed via automated image acquisition and analysis using a Cellomics ArrayScanVTI. The acquisition thresholds/parameters were established such that the computer-based calls of replication events were consistent with human-based calls. The parameters used were directed at the identification of (1) PDX-1+ cells and (2) ki-67 positive staining within the PDX-1 positive area. The algorithm was a three step process. First the nuclear area was predicted by the software based upon the expected PDX-1 staining pattern. Second PDX-1 positive cells (selected objects) were counted based upon the average staining intensity within the predicted nuclear area (Note: total signal intensity was essentially equal in quality but was not typically used). Third, the number of PDX-1 positive cells (selected objects) that simultaneously were Ki-67 positive was determined by determining the average fluorescence intensity of ki-67 staining within the predicted nuclear area (again, total intensity was also occasionally used with equal efficacy). The specific thresholds (fluorescence intensities) varied from experiment to experiment. In general, the basal replication rate was set at roughly 1% i.e., the algorithm was varied until 1% of DMSO treated PDX+ cells were reported to be double positive for PDX-1 and ki67. […]

## Nc1ncnc2c1c(I)cn2[C@@H]1O[C@H](CO)[C@@H](O)[C@H]1O [A10, 5-iodotubercidin]
[1]
  tolerability by cultured hepatocytes: not well tolerated
[2]
  % Ki-67 positive mouse dermal fibroblasts: did not change
[3]
  increase in number of β-cells compared to time 0: 40%
[4]; 1 uM, 24 hours
  induction of β-cell replication in the screening assay: 2.3 fold
[4]; 5-IT 2 μM plus high glucose
  induction of the replication rate above the base-line rate, combination with high glucose: 5 fold
[4]; 24 h, 5-IT 2 μM plus GLP-1 or Ex-4
  β-cell replication effect of addition of 5-IT to the GLP-1R agonists: ~4 fold
[4]; 24 h, 5-IT 2 μM, GLP-1 and Ex-4 20 nM and 4 nM, normalized to DMSO
  increase of β-cell replication: ~2.5 fold
[4]; A10 2 μM, 0-25 mM glucose
  effect of glucose concentration on % beta-cell replication in treated samples: little effect
[4]; A10 2 μM, 0.2%, 2.0% or 20% serum
  % Ki-67 positive cells versus serum concentration: increased with increasing serum concentration
[4]; A10 0.019-10 uM, B8 0.23-30 uM
  % of Ki-67 positive β-cells (PDX-1 and Ki-67 positive cells), dose curve: increase in a dose dependent manner
[4]; FIG. 13c dose-response curves, read-out: EC50, β-cell proliferation in rat islet cultures
  pEC50: 5.33
[4]; dose curves FIG. 2a (A10) and FIG. 3 (B8), Ki-67 positive β-cells, read-out: EC50 for β-cell proliferation
  pEC50: 6.33
